Measured values from PMC6154661, “In Vitro Glucuronidation and Sulfation of ε-Viniferin, a Resveratrol Dimer, in Humans and Rats” (Molecules : A Journal of Synthetic Chemistry and Natural …, 2017).
Several values for one entry are separate records, joined by “and”; a condition that tells them apart may be missing. Equal values may be shown once. Read-outs that look alike come from different tables or passages of the source.

Key:
[1] = Glucuronidation of ε-viniferin by human liver S9 fractions (UDPGA); type: in vitro ADME; details: for Vmax: formation of the glucuronide from ε-viniferin, human liver S9, mean ± SEM, n=3; for relative abundance among the glucuronides (UPLC-DAD profile): human liver S9 2 mg/mL, ε-viniferin 50 µM, UDPGA, 40 min, 37 °C
Method: (§1) After incubation of ε-viniferin (50 µM) for 40 min at 37 °C with either human (Figure 2a, lower panel) or rat (Figure 2b, lower panel) liver S9 fractions (2 mg/mL) in the presence of different phase II cofactor(s), i.e., 3′-phosphoadenosine-5′-phosphosulfate (PAPS) and UDPGA, eight metabolites were found using UPLC-DAD-MS. These metabolites were further identified by comparison with the UPLC retention times and mass spectra of the authentic chemical standards that were obtained by chemical hemi-synthesis (Figure 1a). These eight compounds were the four glucuronoconjugates (MG1, MG2, MG3, and MG4) and the four sulfoconjugates (MS1, MS2, MS3, and MS4). These metabolites were absent in the control condition, i.e., in the presence of liver S9 fractions and in the absence of phase II cofactors (data not shown).
(§2) Samples from either chemical hemi-synthesis or metabolic reactions were carried using a 1290 Infinity UPLC (Agilent Technologies, Courtaboeuf, France). The UPLC was coupled to an Esquire 3000 Plus ion trap mass spectrometer using an ESI source (Bruker-Daltonics, Billerica, MA, USA). 2 µL were injected into an Agilent SB-C18 column (1.8 µm, 2.1 × 100 mm). Samples were eluted with solvent A (H2O 0.1% FA) and solvent B (acetonitrile 0.1% FA) by the following gradient program: 0–1.7 min, 10% B; 1.7–3.4 min, 10–20% B; 3.4–5.1 min, 20–30% B; 5.1–7.8 min, 30% B; 7.8–8.5 min, 30–35% B; 8.5–11.9 min, 35–60% B; 11.9–15.3 min, 60–100% B; 15.3–17 min, 100% B; 17–17.3 min, 100–10% B. The flow rate was set to 0.4 mL/min and the UV detector was set at the wavelength 320 nm. Total ion chromatograms were obtained using negative mode with a range of m/z 130–1400. The parameters were: capillary voltage, +4 kV; nebulizer pressure, 40 psi; dry gas, 10 L/min; dry temperature, 365 °C. Data analysis was performed with Bruker Data Analysis 3.2 (Bruker-Daltonics, Billerica, MA, USA). Metabolite concentrations were expressed as an equivalent of the ε-viniferin standard curve.
(§3) The incubation conditions were optimized by preliminary experiments to ensure the formation rates of metabolites were linear over the incubation time and at the concentration of protein added. Sulfation was investigated by incubating human or rat liver S9 fractions (2 mg/mL) with ε-viniferin at different concentrations (5 to 300 µM) in Tris-HCl buffer (50 mM, pH 7.4), in the presence of PAPS (1 mM), DTT (10 mM), MgCl2 (5 mM) in a final volume of 100 µL. After 40 min at 37 °C, the reaction was stopped with 100 µL of methanol to precipitate the protein. Glucuronidation was investigated by incubating human or rat liver S9 fractions (2 mg/mL) with ε-viniferin at different concentrations (5 to 300 µM) in Tris-HCl buffer (50 mM, pH 7.4), in the presence of UDPGA (1 mM), alamethicin (25 µg/mL), and MgCl2 (5 mM) in a final volume of 100 µL. After 40 min at 37 °C, the reaction was stopped with 100 µL of methanol to precipitate the protein. Samples from sulfation and glucuronidation were then centrifuged for 30 min (14,000× g, 4 °C), and the resultant supernatants were analyzed using UPLC-DAD-MS as described above. The kinetic model that was used to analyze the results was substrate inhibition. Kinetic parameters, i.e., Vmax and Km were obtained using GraphPad Prism software (La Jolla, CA, USA). Results are expressed as mean ± sem of three independent experiments.
(§4) V = (Vmax × [S])/(Km + [S] + [S]^2/Ki),
(§5) Vmax: maximal velocity; Km: substrate affinity constant; [S]: substrate concentration; Ki: substrate inhibition constant.

[2] = Glucuronidation of ε-viniferin by rat liver S9 fractions (UDPGA); type: in vitro ADME; details: for Vmax: formation of the glucuronide from ε-viniferin, rat liver S9, mean ± SEM, n=3
Method: as §1, §2, §3
(§6) V = (Vmax × [S])/(Km + [S] + [S]^2/Ki), […]

[3] = Formation of glucurono- and sulfoconjugates of ε-viniferin (50 µM, 40 min) with human liver S9 fractions; type: in vitro ADME; details: human liver S9, ε-viniferin 50 µM
Method: as §1, §2, §3

[4] = Formation of glucurono- and sulfoconjugates of ε-viniferin (50 µM, 40 min) with rat liver S9 fractions; type: in vitro ADME; details: rat liver S9, ε-viniferin 50 µM
Method: as §1, §2, §3

[5] = rat, in vivo; cited from earlier work
[6] = Sulfation of ε-viniferin by human liver S9 fractions (PAPS); type: in vitro ADME; details: for relative abundance among the sulfoconjugates (UPLC-DAD profile): human liver S9 2 mg/mL, ε-viniferin 50 µM, PAPS, 40 min, 37 °C; for Vmax: formation of the sulfate from ε-viniferin, human liver S9, mean ± SEM, n=3
Method: as §1, §2, §3, §6

[7] = Sulfation of ε-viniferin by rat liver S9 fractions (PAPS); type: in vitro ADME; details: for Vmax: formation of the sulfate from ε-viniferin, rat liver S9, mean ± SEM, n=3; for relative abundance among the sulfoconjugates (UPLC-DAD profile): rat liver S9 2 mg/mL, ε-viniferin 50 µM, PAPS, 40 min, 37 °C
Method: as §1, §2, §3, §4, §5

[8] = design: method as in PMID 27902942; details: mice, oral administration; cited from earlier work

SMILES	Vmax [1]	Vmax [2]	percentage of each metabolite relative to the total amount of ε-viniferin metabolites formed by glucuronidation [3]	percentage of each metabolite relative to the total amount of ε-viniferin metabolites formed by glucuronidation [4]	percentage of each metabolite relative to the total amount of ε-viniferin metabolites formed by sulfation [3]	relative abundance among the sulfoconjugates (UPLC-DAD profile) [6]	Vmax [7]	relative abundance among the sulfoconjugates (UPLC-DAD profile) [7]	percentage of each metabolite relative to the total amount of ε-viniferin metabolites formed by sulfation [4]	also measured
O=C(O)C1OC(Oc2cc(O)cc(C3c4c(/C=C/c5ccc(O)cc5)cc(O)cc4OC3c3ccc(O)cc3)c2)C(O)C(O)C1O (stereo not shown) [MG4]	4.91 ± 0.78 pmol/min/mg protein	43.99 ± 5.49 pmol/min/mg protein	MG4: 31.5 ± 0.9%	MG4: 7.1 ± 0.1%						relative abundance among the glucuronides (UPLC-DAD profile) [1]: major metabolites
Oc1ccc([C@H]2Oc3ccc(/C=C/c4cc(O)cc(O)c4)cc3[C@@H]2c2cc(O)cc(O)c2)cc1 [δ-viniferin]										oral bioavailability [5]: 2.3%
O=S(=O)(O)Oc1ccc(C2Oc3cc(O)cc(/C=C/c4ccc(O)cc4)c3C2c2cc(O)cc(O)c2)cc1 (stereo not shown) [MS3]					MS3: 0%	trace amount	13.47 ± 1.10 pmol/min/mg protein	almost equal amounts	MS3: 22.0 ± 1.9%	
O=C(O)C1OC(Oc2ccc(C3Oc4cc(O)cc(/C=C/c5ccc(O)cc5)c4C3c3cc(O)cc(O)c3)cc2)C(O)C(O)C1O (stereo not shown) [MG3]	0.78 ± 0.06 pmol/min/mg protein	3.06 ± 0.14 pmol/min/mg protein	MG3: 8.9 ± 0.5%	MG3: 0.7 ± 0.0%						
O=C(O)C1OC(Oc2cc(/C=C/c3ccc(O)cc3)c3c(c2)OC(c2ccc(O)cc2)C3c2cc(O)cc(O)c2)C(O)C(O)C1O (stereo not shown) [MG1]	11.27 ± 1.30 pmol/min/mg protein	548.90 ± 86.17 pmol/min/mg protein	MG1: 54.6 ± 2.4%	MG1: 91.1 ± 2.4%						relative abundance among the glucuronides (UPLC-DAD profile) [1]: major metabolites; relative abundance among the glucuronides (UPLC-DAD profile) ([2]; rat liver S9 2 mg/mL, ε-viniferin 50 µM, UDPGA, 40 min, 37 °C): major metabolite
O=C(O)C1OC(Oc2ccc(/C=C/c3cc(O)cc4c3C(c3cc(O)cc(O)c3)C(c3ccc(O)cc3)O4)cc2)C(O)C(O)C1O (stereo not shown) [MG2]	2.54 ± 0.16 pmol/min/mg protein	12.49 ± 1.13 pmol/min/mg protein	MG2: 5.0 ± 1.2%	MG2: 1.1 ± 0.2%						
O=S(=O)(O)Oc1cc(/C=C/c2ccc(O)cc2)c2c(c1)OC(c1ccc(O)cc1)C2c1cc(O)cc(O)c1 (stereo not shown) [MS1]					MS1: 75.2 ± 3.8%	major metabolite	25.16 ± 2.29 pmol/min/mg protein	almost equal amounts	MS1: 38.0 ± 1.4%	Vmax [6]: 361.60 ± 13.09 pmol/min/mg protein
O=S(=O)(O)Oc1cc(O)cc(C2c3c(/C=C/c4ccc(O)cc4)cc(O)cc3OC2c2ccc(O)cc2)c1 (stereo not shown) [MS4]					MS4: 0%	trace amount	36.79 ± 3.94 pmol/min/mg protein	almost equal amounts	MS4: 16.4 ± 1.3%	
O=S(=O)(O)Oc1ccc(/C=C/c2cc(O)cc3c2C(c2cc(O)cc(O)c2)C(c2ccc(O)cc2)O3)cc1 (stereo not shown) [MS2]					MS2: 24.8 ± 1.2%		8.46 ± 0.89 pmol/min/mg protein	almost equal amounts	MS2: 23.5 ± 3.1%	Vmax [6]: 30.46 ± 0.96 pmol/min/mg protein
Oc1ccc(/C=C/c2cc(O)cc3c2[C@@H](c2cc(O)cc(O)c2)[C@H](c2ccc(O)cc2)O3)cc1 [ε-viniferin, ε-Viniferin]										Glucuronidation (%) [3]: 29.1% and 29.1 ± 1.2%; Sulfatation (%) [3]: 43.6% and 43.6 ± 1.8%; oral bioavailability [8]: 0.77%; Sulfatation (%) [4]: 4.3% and 4.3 ± 0.3%; ε-viniferin conversion (%) [4]: 78.1 ± 0.9%
